We go through 16 compounds from patent US9708336B2, “Metallo-beta-lactamase inhibitors” (priority 2014, dated 2017).

Structures are written as SMILES. Read-outs that look alike come from different tables or passages of the source.

The target of one assay is IMP-1 (Serratia marcescens, UniProt P52699). The assay can be described thus: biochemical. The format is biochemical. As to conditions: IMP-1 enzyme, CCF2-FA fluorescence assay; read-out: IMP-1 IC50.
A further assay concerns the target NDM-1 (Klebsiella pneumoniae, UniProt C7C422). As to the kind of experiment: biochemical. It is filed as biochemical.
For a further assay, the target named is VIM-1 (Pseudomonas aeruginosa (strain ATCC 15692 / DSM 22644 / CIP 104116 / JCM 14847 / LMG 12228 / 1C / PRS 101 / PAO1), UniProt A0A0F7KYQ8). The assay can be described thus: Enzyme activity: determination of IC50, fluorescence assay with CCF2-FA substrate (VIM-1). The format is biochemical. As to conditions: CCF2-FA fluorescence assay.
The subject of assay [1] is Klebsiella pneumoniae expressing VIM-1 (IHMA599644). As to the kind of experiment: Antibiotic potentiation activity: synergistic concentration (MITC95) with imipenem, OD600 growth. It is filed as cell-based. The conditions noted are these: Klebsiella pneumoniae expressing VIM-1 (IHMA599644), 95% growth inhibition. The method in brief:
(§1)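 Spectrophotometric growth readings were taken following 22–24 h at 35 °C. Before that, organisms in 1.1× CAMHB were mixed with imipenem, used at 4 μg/ml in assay, and test compound.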

Assay [2] relates to Serratia marcescens expressing IMP-1 (CL5741). The assay is described as above. It is filed as cell-based. The conditions noted are these: Serratia marcescens expressing IMP-1 (CL5741), 95% growth inhibition. The method in brief:
as §1

For assay [3], the system named is Escherichia coli expressing NDM-1 (CLB30016). The assay is described as above. The format is cell-based. The conditions noted are these: Escherichia coli expressing NDM-1 (CLB30016), 95% growth inhibition. The gist of the method: as §1
The mark [4] stands for this setting: NDM-1 enzyme, CCF2-FA fluorescence assay, read-out: NDM-1 IC50.
[5] abbreviates: VIM-1 enzyme, read-out: VIM-1 IC50.

Sequence of IMP-1 (P52699 whole entry, looked up): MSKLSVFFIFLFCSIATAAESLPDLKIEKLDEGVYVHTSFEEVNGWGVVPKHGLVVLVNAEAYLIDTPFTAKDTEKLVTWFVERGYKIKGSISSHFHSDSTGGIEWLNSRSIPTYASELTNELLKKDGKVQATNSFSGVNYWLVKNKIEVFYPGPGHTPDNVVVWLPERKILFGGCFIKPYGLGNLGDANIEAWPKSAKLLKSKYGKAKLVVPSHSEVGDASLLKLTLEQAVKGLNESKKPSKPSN
Sequence of NDM-1 (C7C422 whole entry, looked up, species assumed): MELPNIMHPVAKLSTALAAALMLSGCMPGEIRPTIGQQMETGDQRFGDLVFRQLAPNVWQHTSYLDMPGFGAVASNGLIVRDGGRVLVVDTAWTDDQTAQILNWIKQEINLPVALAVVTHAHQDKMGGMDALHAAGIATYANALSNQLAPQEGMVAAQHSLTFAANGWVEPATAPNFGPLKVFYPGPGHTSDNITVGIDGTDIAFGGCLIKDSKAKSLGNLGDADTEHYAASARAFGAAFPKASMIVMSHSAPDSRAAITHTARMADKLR

Consider `N=C(N)NC1Cc2ccc(-c3ccc(C(F)(F)F)c(S(N)(=O)=O)c3-c3nn[nH]n3)cc2C1` (stereo not drawn) [Example 447, 3-(2-guanidino-2,3-dihydro-1H-inden-5-yl)-2-(2H-tetrazol-5-yl)-6-(trifluoromethyl)benzenesulfonamide], for which the IC50 (as a rule, the concentration that gives 50% inhibition) amounted to 4.26 nM on IMP-1, 7.13 nM at NDM-1 (setting [4]) and 0.171 nM on VIM-1 (setting [5]). Also, the “Klebsiella pneumoniae MITC95” value in assay [1] amounted to 0.8906 µM. Moreover, the “Serratia marcescens MITC95” value in assay [2] came out at 0.125 µM. In addition, the “Escherichia coli MITC95” value in assay [3] worked out at 1.086 µM.
On to `NC(=O)Cc1ccc(-c2ccc(C(F)(F)F)c(S(N)(=O)=O)c2-c2nn[nH]n2)cc1` [Example 448, 2-(3′-sulfamoyl-2′-(2H-tetrazol-5-yl)-4′-(trifluoromethyl)-[1,1′-biphenyl]-4-yl)acetamide], for which the IC50 at IMP-1 worked out at 2.17 nM; on NDM-1 (setting [4]), 2.1 nM; on VIM-1 (setting [5]), 0.962 nM. The “Klebsiella pneumoniae MITC95” value in assay [1] worked out at 6.25 µM. Besides, the “Serratia marcescens MITC95” value in assay [2] came out at 0.1953 µM. Moreover, the “Escherichia coli MITC95” value in assay [3] amounted to 3.125 µM.
With `NC(=O)CCc1ccc(-c2ccc(C(F)(F)F)c(S(N)(=O)=O)c2-c2nn[nH]n2)cc1` [Example 449, 3-(3′-sulfamoyl-2′-(2H-tetrazol-5-yl)-4′-(trifluoromethyl)-[1,1′-biphenyl]-4-yl)propanamide], the IC50 was found to be 0.537 nM at IMP-1; 0.653 nM at NDM-1 (setting [4]); 0.815 nM against VIM-1 (VIM-1 IC50, VIM-1 enzyme). For the same compound, in assay [1], the “Klebsiella pneumoniae MITC95” value was 6.25 µM. In addition, the “Serratia marcescens MITC95” value in assay [2] was determined as 0.1953 µM. Further, the “Escherichia coli MITC95” value in assay [3] amounted to 0.7813 µM.
Regarding `NS(=O)(=O)c1c(C(F)(F)F)ccc(N2CCC(c3ccc(CO)cc3)CC2)c1-c1nn[nH]n1` [Example 450, 3-(4-(4-(hydroxymethyl)phenyl)piperidin-1-yl)-2-(2H-tetrazol-5-yl)-6-(trifluoromethyl)benzenesulfonamide], the IC50 on IMP-1 was 1.28 nM; at NDM-1 (setting [4]), 1.62 nM; on VIM-1 (setting [5]), 1.8 nM. In addition, in assay [1], the “Klebsiella pneumoniae MITC95” value was 75 µM. Besides, the “Serratia marcescens MITC95” value in assay [2] turned out to be 0.03125 µM. Moreover, in assay [3], the “Escherichia coli MITC95” value is 18.75 µM.
`NC1CCC(Cc2ccc(-c3ccnc4ccccc34)c(-c3nn[nH]n3)c2S(N)(=O)=O)CC1` (stereo not drawn) [Example 451, 6-(((1s,4s)-4-aminocyclohexyl)methyl)-3-(quinolin-4-yl)-2-(2H-tetrazol-5-yl)benzenesulfonamide]: the IC50 at IMP-1 stood at 47.1 nM; at NDM-1 (setting [4]), 0.977 nM; on VIM-1 (setting [5]), 0.476 nM. The “Klebsiella pneumoniae MITC95” value in assay [1] stood at 3.125 µM. For the same compound, in assay [2], the “Serratia marcescens MITC95” value came to 3.125 µM. Further, the “Escherichia coli MITC95” value in assay [3] is 1.563 µM.
For the compound `N#CCCc1ccc(-c2ccnc3ccccc23)c(-c2nn[nH]n2)c1S(N)(=O)=O` [Example 453, 6-(2-cyanoethyl)-3-(quinolin-4-yl)-2-(2H-tetrazol-5-yl)benzenesulfonamide], the IC50 on IMP-1 turned out to be 111 nM; on NDM-1 (setting [4]) it was 6.88 nM; on VIM-1 (setting [5]), 0.665 nM. Further, the “Klebsiella pneumoniae MITC95” value in assay [1] was determined as 6.25 µM. Besides, the “Serratia marcescens MITC95” value in assay [2] came to 12.5 µM. Besides, in assay [3], the “Escherichia coli MITC95” value was found to be 4.688 µM.
Take `NS(=O)(=O)c1c(CC2CCNCC2)ccc(-c2ccc(C3CCNCC3)cc2)c1-c1nn[nH]n1` [Example 456, 4′-(piperidin-4-yl)-4-(piperidin-4-ylmethyl)-2-(2H-tetrazol-5-yl)-[1,1′-biphenyl]-3-sulfonamide]: the IC50 is 9.79 nM on IMP-1, 4.58 nM on NDM-1 (setting [4]) and 3.44 nM at VIM-1 (setting [5]). In addition, in assay [1], the “Klebsiella pneumoniae MITC95” value is 1.172 µM. The “Serratia marcescens MITC95” value in assay [2] was 0.5859 µM. In addition, the “Escherichia coli MITC95” value in assay [3] stood at 0.5859 µM.
With `NC[C@H]1CC[C@H](Cc2ccc(-c3ccc(C4CCNCC4)cc3)c(-c3nn[nH]n3)c2S(N)(=O)=O)CC1` [Example 457, 4-(((1r,4r)-4-(aminomethyl)cyclohexyl)methyl)-4′-(piperidin-4-yl)-2-(2H-tetrazol-5-yl)-[1,1′-biphenyl]-3-sulfonamide], the IC50 at IMP-1 came to 3.05 nM; at NDM-1 (setting [4]), 1.1 nM; at VIM-1 (setting [5]) it was 0.803 nM. For the same compound, in assay [1], the “Klebsiella pneumoniae MITC95” value came out at 1.172 µM. Also, the “Serratia marcescens MITC95” value in assay [2] stood at 0.1953 µM. Also, the “Escherichia coli MITC95” value in assay [3] was 0.3906 µM.
Take `NS(=O)(=O)c1c(CC(F)(F)F)ccc(-c2ccc(C3CCNCC3)cc2)c1-c1nn[nH]n1` [Example 458, 4′-(piperidin-4-yl)-2-(2H-tetrazol-5-yl)-4-(2,2,2-trifluoroethyl)-[1,1′-biphenyl]-3-sulfonamide]: the IC50 came to 2.39 nM at IMP-1, 22.1 nM at NDM-1 (setting [4]) and 2.12 nM at VIM-1 (setting [5]). Also, the “Klebsiella pneumoniae MITC95” value in assay [1] was 3.125 µM. Moreover, in assay [2], the “Serratia marcescens MITC95” value amounted to 0.125 µM. In assay [3], the “Escherichia coli MITC95” value was found to be 3.125 µM.
Regarding `NC1CCC(c2ccc(-c3ccc(C4CCNCC4)cc3)c(-c3nn[nH]n3)c2S(N)(=O)=O)CC1` (stereo not drawn) [Example 459, 4-(4-aminocyclohexyl)-4′-(piperidin-4-yl)-2-(2H-tetrazol-5-yl)-[1,1′-biphenyl]-3-sulfonamide], the results for the IC50 on IMP-1, on NDM-1 (setting [4]) and on VIM-1 (setting [5]) were 86.6 nM, 1120 nM and 112 nM, respectively. For the same compound, the “Klebsiella pneumoniae MITC95” value in assay [1] came to 3.125 µM. Moreover, the “Serratia marcescens MITC95” value in assay [2] is 1.172 µM. In addition, the “Escherichia coli MITC95” value in assay [3] stood at 6.25 µM.
In the case of `NS(=O)(=O)c1c(CCC2CCNCC2)ccc(-c2ccc(C3CCNCC3)cc2)c1-c1nn[nH]n1` [Example 460, 4′-(piperidin-4-yl)-4-(2-(piperidin-4-yl)ethyl)-2-(2H-tetrazol-5-yl)-[1,1′-biphenyl]-3-sulfonamide], the IC50 was 16.6 nM on IMP-1, 3.97 nM at NDM-1 and 10.4 nM on VIM-1 (setting [5]). In addition, the “Klebsiella pneumoniae MITC95” value in assay [1] was found to be 1.563 µM. The “Serratia marcescens MITC95” value in assay [2] was 0.3906 µM. Further, the “Escherichia coli MITC95” value in assay [3] turned out to be 0.5859 µM.
Take `NS(=O)(=O)c1c(CC[C@H]2CC[C@H](N)CC2)ccc(-c2ccc(C3CCNCC3)cc2)c1-c1nn[nH]n1` [Example 461, 4-(2-((1r,4s)-4-aminocyclohexyl)ethyl)-4′-(piperidin-4-yl)-2-(2H-tetrazol-5-yl)-[1,1′-biphenyl]-3-sulfonamide]: the figures for the IC50 at IMP-1, at NDM-1 (setting [4]) and on VIM-1 (setting [5]) were 4.07 nM, 1.92 nM and 1.67 nM, respectively. In addition, the “Klebsiella pneumoniae MITC95” value in assay [1] was found to be 4.688 µM. Further, the “Serratia marcescens MITC95” value in assay [2] worked out at 1.563 µM. In assay [3], the “Escherichia coli MITC95” value was 1.563 µM.
For the compound `NS(=O)(=O)c1c(CC[C@H]2CC[C@@H](N)CC2)ccc(-c2ccc(C3CCNCC3)cc2)c1-c1nn[nH]n1` [Example 462, 4-(2-((1s,4r)-4-aminocyclohexyl)ethyl)-4′-(piperidin-4-yl)-2-(2H-tetrazol-5-yl)-[1,1′-biphenyl]-3-sulfonamide], the IC50 came to 11.5 nM on IMP-1, 3.8 nM at NDM-1 (setting [4]) and 8.13 nM on VIM-1 (setting [5]). Moreover, in assay [1], the “Klebsiella pneumoniae MITC95” value stood at 18.75 µM. For the same compound, the “Serratia marcescens MITC95” value in assay [2] worked out at 1.563 µM. The “Escherichia coli MITC95” value in assay [3] was determined as 0.7813 µM.
Take `NS(=O)(=O)c1c(CC2(F)CCNCC2)ccc(-c2ccc(C3CCNCC3)cc2)c1-c1nn[nH]n1` [Example 464, 4-((4-fluoropiperidin-4-yl)methyl)-4′-(piperidin-4-yl)-2-(2H-tetrazol-5-yl)-[1,1′-biphenyl]-3-sulfonamide]: the IC50 at IMP-1 turned out to be 18.7 nM; at NDM-1 (setting [4]) it was 3.82 nM; on VIM-1 (setting [5]) it was 1.95 nM. Moreover, the “Klebsiella pneumoniae MITC95” value in assay [1] stood at 1.563 µM. Besides, the “Serratia marcescens MITC95” value in assay [2] came out at 1.563 µM. Besides, the “Escherichia coli MITC95” value in assay [3] was 0.7813 µM.
In the case of `NS(=O)(=O)c1c(CC2CCNCC2(F)F)ccc(-c2ccc(C3CCNCC3)cc2)c1-c1nn[nH]n1` (stereo not drawn) [Example 465, 4-((3,3-difluoropiperidin-4-yl)methyl)-4′-(piperidin-4-yl)-2-(2H-tetrazol-5-yl)-[1,1′-biphenyl]-3-sulfonamide], the IC50 on IMP-1 was 3.31 nM; on NDM-1 (setting [4]), 2.7 nM; on VIM-1 (setting [5]), 1.64 nM. In addition, the “Klebsiella pneumoniae MITC95” value in assay [1] turned out to be 12.5 µM. The “Serratia marcescens MITC95” value in assay [2] is 3.125 µM. Besides, the “Escherichia coli MITC95” value in assay [3] amounted to 3.125 µM.
Take `NS(=O)(=O)c1c(CCC2CNC2)ccc(-c2ccc(C3CCNCC3)cc2)c1-c1nn[nH]n1` [Example 466, 4-(2-(azetidin-3-yl)ethyl)-4′-(piperidin-4-yl)-2-(2H-tetrazol-5-yl)-[1,1′-biphenyl]-3-sulfonamide]: the half-inhibitory concentration (IC50) was 54.6 nM at IMP-1, 10.5 nM on NDM-1 (setting [4]) and 3.72 nM on VIM-1 (setting [5]). In addition, the “Klebsiella pneumoniae MITC95” value in assay [1] came out at 1.563 µM. Also, the “Serratia marcescens MITC95” value in assay [2] was found to be 1.563 µM. The “Escherichia coli MITC95” value in assay [3] was 0.7813 µM.
